Common to all, as to assay type: in vivo
For assay [1], the system named is Rhizoctonia solani. The assay is described as follows: Preventive activity against sheath blight of rice plants (Experiment 2). Details: key: 0 = disease as untreated, 5 = no disease (complete control). Conditions: rice seedlings (variety Nihonbare), sprayed at 100 ppm (30 ml/3 pots) 24 hours before inoculation, 5 days; height of the lesions. How it is done:
Rice seedlings (variety Nihonbare) at the 4 - 5 leaf stage were sprayed with an aqueous suspension of the test compound at a concentration of 100 ppm (30 ml/3 pots). The seedlings were then kept for 24 hours at room temperature, after which they were inoculated with the fungus, Rhizoctonia solani, by placing 4 - 5 oat grains on which the fungus had previously been cultured around the base of each seedling. The seedlings were then kept in a moist chamber for 5 days at 25 - 27 °C. The disease controlling index was given on the basis of the height of the lesions formed on the rice seedlings.
Except in Table 12G, the compounds tested have the formula (1-1), in which Ar represents the group shown at the beginning of each part of the Table and R^1, R^2, X and Y are as defined in the Table.
(§1) The disease controlling index shown in the foregoing Tables 11 to 19 is indicated by the following codes: • 5--no disease (complete control) • 4--disease rate is less than 10% of the untreated plant • 3--disease rate is 10% - 30% of the untreated plant • 2--disease rate is 30% - 50% of the untreated plant • 1--disease rate is 50% - 70% of the untreated plant • 0--disease rate is almost same as the untreated plant.

In assay [2] the test system is Rhizoctonia solani. The assay is described as follows: Curative activity against sheath blight of rice plants (Experiment 3). Particulars: rice seedlings (variety Nihonbare), sprayed 24 hours after inoculation at 10 ppm (30 ml/3 pots), further 5 days; height of the lesions. Details: key: 0 = disease as untreated, 5 = no disease (complete control). How it is done:
Rice seedlings (variety Nihonbare) at the 4 - 5 leaf stage were inoculated with the fungus, Rhizoctonia solani, by placing 4 - 5 oat grains on which the fungus had previously been cultured around the base of each rice seedling and keeping them in a moist chamber at 25 - 27 °C. After 24 hours, the rice seedlings were sprayed with an aqueous suspension of the test compound at a concentration of 10 ppm (30 ml/3 pots) and they then continued to be kept in the moist chamber for a further 5 days. The disease controlling index was given on the basis of the height of the lesions formed on the rice seedlings.
(§2) The compounds tested have the formula (1-1), in which Ar represents the group shown at the beginning of each part of the Table and R^1, R^2, X and Y are as defined in the Table.
as §1

Assay [3] concerns Puccinia recondita. The assay can be described thus: Curative activity against leaf rust of wheat (Experiment 6). Particulars: wheat seedlings (variety Norin No 61), sprayed after inoculation at 3 ppm (30 ml/3 pots), 10 days; diseased area on the first leaf. How it is done:
Wheat seedlings (variety Norin No 61) at the first leaf stage were inoculated with the fungus, Puccinia recondita, by spraying them with a spore suspension of the fungus. They were then kept in a moist chamber for 24 hours at 20 - 22 °C, after which they were moved to a greenhouse at 15 - 20 °C. […] The seedlings were then continuously kept in the greenhouse for 10 days. The disease controlling index was given on the basis of diseased area on the first leaf.

Assay [4] has as its system Erysiphe graminis f.sp. hordei. The assay is described as follows: Curative activity against powdery mildew of barley (Experiment 7). Conditions: barley seedlings (variety Sekishinriki), sprayed one day after inoculation at 3 ppm (30 ml/3 pots), further 10 days; diseased area on the first leaf. How it is done:
Barley seedlings (variety […]) at the first leaf stage were inoculated with conidia of Erysiphe graminis f.sp. hordei and kept in a greenhouse at 15 - 20°C. After one day, the seedlings were sprayed with an aqueous suspension of the test compound at a concentration of 3 ppm (30 ml/3 pots), and they continued to be kept in the greenhouse at that temperature for a further 10 days. The disease controlling index was given on the basis of the diseased area on the first leaf.

In assay [5] the test system is Sphaerotheca fuliginea. The assay can be described thus: Preventive activity against powdery mildew of cucumber (Experiment 8). Particulars: cucumber seedlings sprayed at 300 ppm, inoculated after 24 hours, evaluated after 7 days in greenhouse; diseased area on third and fourth leaves. How it is done:
Cucumber seedlings (variety Sagamihanpaku) at the 3 - 4 leaf stage were sprayed with an aqueous suspension of the test compound at a concentration of 300 ppm (30 ml/3 pots). The seedlings were then kept for 24 hours at room temperature, after which they were inoculated with conidida of Sphaerotheca fuliginea. After keeping the seedlings in a greenhouse for 7 days, the disease controlling index was evaluated on the basis of the diseased area on the third and fourth leaves.

Assay [6] relates to Candida albicans. The assay is described as follows: ED50 in mice infected with Candida albicans, oral treatment (Experiment 11). Conditions: 360 h, treated orally, fifteen days after infection. How it is done:
Groups of mice (each group contained 10 mice) were inoculated with 7 to 9 x 10^6 spores per mouse of Candida albicans. 1, 4, and 24 hours after the inoculation, each mouse was orally administered 20 mg/kg of the test compound each time. The anti-fungal activity was assessed by the survival rate 9 days after infection. The survival rate was recorded as 0% 2 days after infection in an untreated (control) group. […] Following essentially the same procedure as that described in Experiment 10, mice were infected with Candida albicans, and treated orally with various compounds of the invention, as shown in the following Table 21. Fifteen days after infection (or fourteen days in the case of the compounds of Example Nos. 5 and 10), ED50 values were determined and are reported in the following Table 21.

The test system of assay [7] is Pyricularia oryzae. Conditions: rice seedlings (variety Sachikaze), sprayed 24 hours after inoculation at 10 ppm (30 ml/3 pots), further 6 days; number of lesions on the upper two leaves.
The test system of assay [8] is Rhizoctonia solani. The assay is described as follows: Preventive activity against sheath blight of rice plants by submerged application (Experiment 4). Conditions: rice seedlings (variety Nihonbare), applied to the water in the pots, 100 g per 10 ares, inoculated after 7 days, 5 days; height of the lesions.
From the text: Rice seedlings (variety Nihonbare) at the 4 - 5 leaf stage grown in pots were flooded to a depth of 1 cm with water. The test compound was then applied to the water in the pots in an amount corresponding to 100 g per 10 ares. After keeping the seedlings in a greenhouse for 7 days, the water was drained from the pots and the seedlings were inoculated with the fungus, Rhizoctonia solani, by placing 4 - 5 oat grains on which the fungus had previously been cultured around the base of each seedling. The seedlings were then kept in a moist chamber for 5 days at 25 - 27 °C. The disease controlling index was given on the basis of the height of the lesions formed on the rice seedlings.
Except for Table 14F, the compounds tested have the formula (1-1), in which Ar represents the group shown at the beginning of each part of the Table and R^1, R^2, X and Y are as defined in the Table.
as §1

Assay [9] deals with Gibberella Fujikuroi. The assay can be described thus: Activity against bakanae disease of rice plants by seed soaking (Experiment 5). Details: key: 0 = disease as untreated, 5 = no disease (complete control). Particulars: infected rice seeds (variety Tanginbozu) immersed 3 days in aqueous suspension (concentration not given), 3 weeks; number of diseased seedlings. How it is done:
Ten grams of rice seeds (variety Tanginbozu), infected with Gibberella Fujikuroi, were immersed in 20 ml of an aqueous suspension of the test compound for 3 days. At the end of this time, the treated seeds were densely sown in soil in pots, and the pots were placed in a greenhouse at 20 - 30 °C for 3 weeks. The disease controlling index was given on the basis of the number of diseased seedlings.
as §2, §1

The subject of assay [10] is Venturia inaequalis. The assay is described as follows: Preventive activity against apple scab (Experiment 9). Particulars: apple seedlings sprayed at 300 ppm, inoculated after 24 hours, 3 days moist chamber then 10 days greenhouse; diseased area on third and fourth leaves. How it is done: Apple seedlings at the 3 - 4 leaf stage were sprayed with an aqueous suspension of the test compound at a concentration of 300 ppm (30 ml/3 pots). The seedlings were then kept for 24 hours at room temperature, after which they were inoculated with the fungus, Venturia inaequalis, by spraying a spore suspension of the fungus over the seedlings. After inoculation, the seedlings were kept in a moist chamber for 3 days at 20 - 22 °C and then moved to a greenhouse at 20 - 22°C for 10 days. The disease controlling index was given on the basis of the diseased area on the third and fourth leaves.

This is an account of results in EP0332387B1, “Triazole derivatives, their preparation and their use as fungicides” (Sankyo Company Limited, priority 1988, dated 1989).

One may read the ED50 as the dose that gives a 50% effect, or the effect in half of the subjects.

For the compound `C[C@@H](NC(=O)c1ccc(C#N)cc1)[C@](O)(Cn1cncn1)c1ccc(F)cc1F` [Example 67], the disease controlling index in assay [1], in [2], in assay [3] and in [4] was 4 (disease rate is less than 10% of the untreated plant) in each case. Besides, in assay [5], the “Index (disease controlling index)” value was 5. Also, it took a dose of 1.25 mg/kg to reach the 50% effect level in assay [6] (ED50).
As to `CC(N=[N+]=[N-])[C@H](C)[C@](O)(Cn1cncn1)c1ccc(F)cc1F` (single isomer, unassigned) [83 (C-4 isomer 1), (2R*, 3S*)-4-Azido-2-(2,4-difluorophenyl)-3-methyl-1-(1H-1,2,4-triazol-1-yl)-2-pentanol], the disease controlling index in assay [7], in assay [1], in [2], in assay [8], in [9] and in assay [3] was 5 throughout. The same compound gave a disease controlling index in assay [4] of 5. The “Index (disease controlling index)” value in assay [5] and in [10] was 5 throughout.
With `C[C@@H](N=[N+]=[N-])[C@](O)(Cn1cncn1)c1ccc(Cl)cc1Cl` (relative stereo) [Example 2, (2R*, 3R*)-3-Azido-2-(2,4-dichlorophenyl)-l-(lH-1,2,4-triazol-1-yl)-2-butanol], the disease controlling index in assay [7] is on record as 4 (disease rate is less than 10% of the untreated plant); in assay [2], 5; in assay [8], 5; in assay [3], 5. In addition, the “Index (disease controlling index)” value in assay [5] and in assay [10] was 5 each time.
For the compound `O=C(NCC(O)(Cn1cncn1)c1ccc(Cl)cc1Cl)c1ccc(Cl)cc1` (centres unmarked) [Compound X, 3-(4-chlorobenzoylamino)-2-(2,4-dichlorophenyl)-1-(1H-1,2,4-triaiol-1-yl)-2-propanol, reference compound], the disease controlling index in [7], in [2] and in [8] was 0 in each case.
For the compound `C[C@@H](N=[N+]=[N-])[C@](O)(Cn1cncn1)c1ccc(F)cc1F` [Example 99, (2R, 3R)-3-Azido-2-(2,4-difluorophenyl)-1-(1H-1,2,4-triazol-1-yl)-2-butanol], the disease controlling index is listed as 5 in assay [7], 5 in [2], 4 (disease rate is less than 10% of the untreated plant) in assay [8] and 5 in assay [9]. For the same compound, the “Index (disease controlling index)” value in assay [5] and in assay [10] was 5 throughout.
Consider `C[C@@H](CCN=[N+]=[N-])[C@](O)(Cn1cncn1)c1ccc(F)cc1F` (relative stereo) [Example 81, (2R*, 3S*)-5-Azido-2-(2,4-difluorophenyl)-3-methyl-1-(1H-1,2,4-triazol-1-yl)-2-pentanol], for which the disease controlling index in assay [7] is listed as 5; in assay [1], 5; in [2] it was 5; in [8], 4 (disease rate is less than 10% of the untreated plant); in assay [9], 5; in assay [3] it was 5.
In the case of `CC(N=[N+]=[N-])[C@H](C)[C@](O)(Cn1cncn1)c1ccc(F)cc1F` (single isomer, unassigned) [83 (oxalate, C-4 isomer 2), (2R*, 3S*)-4-Azido-2-(2,4-difluorophenyl)-3-methyl-1-(1H-1,2,4-triazol-1-yl)-2-pentanol], the disease controlling index in assay [7] was 5; in assay [1], 5; in [2] it was 5; in assay [8], 4 (disease rate is less than 10% of the untreated plant); in assay [9], 5; in assay [3], 5. The same compound came in with a disease controlling index in assay [4] of 5. The “Index (disease controlling index)” value in assay [5] and in assay [10] was 5 each time.
`CC(=O)N1CCN(c2ccc(OCC3COC(Cn4ccnc4)(c4ccc(Cl)cc4Cl)O3)cc2)CC1` (centres unmarked) [ketoconazole, reference compound] returned an ED50 in assay [6] of 31.4 mg/kg.
The compound `C[C@@H](NC(=O)c1ccc(C(F)(F)F)cc1)[C@](O)(Cn1cncn1)c1ccc(Cl)cc1` [Example 103, (2R, 3R)-2-(4-Chlorophenyl)-1-(1H-1,2,4-triazol-1-yl)-3-[(4-trifluoromethyl)benzoylamino]-2-butanol] gave an ED50 in assay [6] of 0.48 mg/kg.
